# Laboratory results published in patent publication US8563741B2, “CDK inhibitors containing a zinc binding moiety” (Curis, Inc., priority 2007, dated 2013).
# How the values were obtained:
# HDAC = HDAC fluorimetric assay kit (AK-500, Biomol), HeLa nuclear extract; format: biochemical
# Description: HDAC inhibitors were screened using an HDAC fluorimetric assay kit (AK-500, Biomol, Plymouth Meeting, Pa.). […] Each assay was setup as follows: Defrosted all kit components and kept on ice until use. Diluted HeLa nuclear extract 1:29 in Assay Buffer (50 mM Tris/Cl, pH 8.0, 137 mM NaCl, 2.7 mM KCl, 1 mM MgCl2). Prepared dilutions of Trichostatin A (TSA, positive control) and tested compounds in assay buffer (5× of final concentration). Diluted Fluor de LysTM Substrate in assay buffer to 100 uM (50 fold=2× final). Diluted Fluor de LysTM developer concentrate 20-fold (e.g. 50 μl plus 950 μl Assay Buffer) in cold assay buffer. Second, diluted the 0.2 mM Trichostatin A 100-fold in the 1× Developer (e.g. 10 μl in 1 ml; final Trichostatin A concentration in the 1× Developer=2 μM; final concentration after addition to HDAC/Substrate reaction=1 μM). Added Assay buffer, diluted trichostatin A or test inhibitor to appropriate wells of the microtiter plate. Added diluted HeLa extract or other HDAC sample to all wells except for negative controls. Allowed diluted Fluor de LysTM Substrate and the samples in the microtiter plate to equilibrate to assay temperature (e.g. 25 or 37° C. Initiated HDAC reactions by adding diluted substrate (25 μl) to each well and mixing thoroughly. Allowed HDAC reactions to proceed for 1 hour and then stopped them by addition of Fluor de LysTM Developer (50 μl). Incubated plate at room temperature (25° C.) for 10-15 min. Read samples in a microtiter-plate reading fluorimeter capable of excitation at a wavelength in the range 350-380 nm and detection of emitted light in the range 440-460 nm.
# CDK2/cyclinE = target: T1, CDK2/cyclinE (Homo sapiens, UniProt P24941); assay: CDK activity assay with p33 ATP, CDK2/cyclinE; format: biochemical; settings: 1 μM ATP
# T1 construct: C-terminal 6His-tagged, recombinant full-length CDK2 (MW=34 kDa); 6His (C); made in house; host or cells: Sf21 cells (baculovirus)
# Description: CDK2/cyclinE (Accession Number for CDK2; EMBL M68520, for cyclinE1; GenBank NM_001238):
# C-terminal 6His-tagged, recombinant full-length CDK2 (MW=34 kDa) in complex with N-terminal GST-tagged, recombinant full-length cyclinE1 (MW=74 kDa) were expressed with baculovirus system in Sf21 cells. Recombinant proteins were purified using Ni2+/NTA agarose and the purity of recombinant protein complex was measured to be around 76% by SDS-PAGE and Coomassie blue staining. Specific Activity of recombinant CDK2/cyclinE was 1336 U/mg, where one unit of CDK2/cylinE1 activity is defined as 1 nmol phosphate incorporated into 0.1 mg/ml histone H1 per minute at 30° C. with a final ATP concentration of 100 μM. Enzyme was stored with concentration of 0.1 mg/ml in 50 mM Tris/HCl pH 7.5, 150 mM NaCl, 0.03% Brij-35, 0.1 mM EGTA, 0.2 mM PMSF, 1 mM benzamidine, 0.1% 2-mercaptoethanol, 270 mM sucrose.
Compound,IC50 (HDAC) [nM],IC50 (CDK2/cyclinE) [nM],melting point [°C],CDK2/cyclinE IC50 (CDK2/cyclinE)
CC(C)(C)c1cnc(CSc2cnc(NC(=O)Cc3ccc(OCCCCCC(=O)NO)cc3)s2)o1 [Compound 11],100 to 1000,< 100,–,–
"CC(C)(C)c1cnc(CSc2cnc(NC(=O)C3CCN(CCCCC(=O)NO)CC3)s2)o1 [Compound 2, N-(5-((5-tert-butyloxazol-2-yl)methylthio)thiazol-2-yl)-1-(5-(hydroxyamino)-5-oxopentyl)piperidine-4-carboxamide]",1000 to 10000,< 100,93 to 97,–
"CC(C)(C)c1cnc(CSc2cnc(NC(=O)C(C)(C)c3ccc(OCCCC(=O)NO)cc3)s2)o1 [Compound 27, 4-(4-(1-(5-((5-Tert-butyloxazol-2-yl)methylthio)-thiazol-2-ylamino)-2-methyl-1-oxopropan-2-yl)phenoxy)-N-hydroxybutanamide]",100 to 1000,< 100,–,–
CC(C)(C)c1cnc(CSc2cnc(NC(=O)c3ccc(OCCCCCCC(=O)NO)cc3)s2)o1 [Compound 40],100 to 1000,< 100,–,–
"CC(C)(C)c1cnc(CSc2cnc(NC(=O)c3ccc(/C=C/C(=O)NO)cc3)s2)o1 [Compound 18, (E)-N-(5-((5-tert-butyloxazol-2-yl)methylthio)thiazol-2-yl)-4-(3-(hydroxylamino)-3-oxoprop-1-enyl)benzamide]",100 to 1000,< 100,–,–
"CC(C)(C)c1cnc(CSc2cnc(NC(=O)c3cccc(/C=C/C(=O)NO)c3)s2)o1 [Compound 19, (E)-N-(5-((5-tert-butyloxazol-2-yl)methylthio)-thiazol-2-yl)-3-(3-(hydroxylamino)-3-oxoprop-1-enyl)benzamide]",100 to 1000,< 100,–,–
"CC(C)(C)c1cnc(CSc2nnc(NC(=O)CCCCCCC(=O)NO)s2)o1 [Compound 22, N^1-(5-((5-tert-butyloxazol-2-yl)methylthio)-1,3,4-thiadiazol-2-yl)-N^8-hydroxyoctanediamide]",–,1000 to 10000,–,–
"CC(C)(C)c1cnc(CSc2cnc(NC(=O)Cc3ccc(OCCC(=O)NO)cc3)s2)o1 [Compound 23, 3-(4-(2-(5-((5-tert-butyloxazol-2-yl)methylthio)-thiazol-2-ylamino)-2-oxoethyl)phenoxy)-N-hydroxypropanamide]",< 100,< 100,93 to 95,–
"CC(C)(C)c1cnc(CSc2cnc(NC(=O)c3ccc(OCCCCC(=O)NO)cc3)s2)o1 [Compound 24, N-(5-((5-tert-butyloxazol-2-yl)methylthio)thiazol-2-yl)-4-(5-(hydroxyamino)-5-oxopentyloxy)benzamide]",–,< 100,–,–
"CC(C)(C)c1cnc(CSc2cnc(NCC3CCN(c4ncc(C(=O)NO)cn4)CC3)s2)o1 [Compound 21, 2-(4-((5-((5-tert-butyloxazol-2-yl)methylthio)-thiazol-2-ylamino)methyl)piperidin-1-yl)-N-hydroxypyrimidine-5-carboxamide]",< 100,< 100,–,–
"CC(C)(C)c1cnc(CSc2nnc(NC(=O)Cc3ccc(OCCCC(=O)NO)cc3)s2)o1 [Compound 30, 4-(4-(2-(5-((5-tert-butyloxazol-2-yl)methylthio)-1,3,4-thiadiazol-2-ylamino)-2-oxoethyl)phenoxy)-N-hydroxybutanamide]",100 to 1000,1000 to 10000,–,–
"CC(C)(C)c1cnc(CSc2cnc(NS(=O)(=O)c3cccc(/C=C/C(=O)NO)c3)s2)o1 [Compound 32, (E)-3-(3-(N-(5-((5-tert-butyloxazol-2-yl)methylthio)thiazol-2-yl)sulfamoyl)phenyl)-N-hydroxyacrylamide]",< 100,1000 to 10000,–,–
"CC(C)(C)c1cnc(CSc2cnc(NC(=O)CCCNCCCCCCC(=O)NO)s2)o1 [Compound 17, 7-(4-(5-((5-tert-butyloxazol-2-yl)methylthio)-thiazol-2-ylamino)-4-oxobutylamino)-N-hydroxyheptanamide]",100 to 1000,< 100,–,–
"CC(C)(C)c1cnc(CSc2cnc(NC(=O)C3CCN(CCCC(=O)NO)CC3)s2)o1 [Compound 1, N-(5-((5-tert-butyloxazol-2-yl)methylthio)thiazol-2-yl)-1-(4-(hydroxyamino)-4-oxobutyl)piperidine-4-carboxamide]",> 10000,< 100,176 to 180,–
"CC(C)(C)c1cnc(CSc2cnc(NC(=O)C3CCN(CCCCCCC(=O)NO)CC3)s2)o1 [Compound 4, N-(5-((5-tert-butyloxazol-2-yl)methylthio)thiazol-2-yl)-1-(7-(hydroxyamino)-7-oxoheptyl)piperidine-4-carboxamide]",100 to 1000,< 100,113 to 115,–
"CC(C)(C)c1cnc(CSc2cnc(NS(=O)(=O)c3ccc(C(=O)NO)cc3)s2)o1 [Compound 33, 4-(N-(5-((5-tert-butyloxazol-2-yl)methylthio)-thiazol-2-yl)sulfamoyl)-N-hydroxybenzamide]",100 to 1000,–,–,No
"CC(C)(C)c1cnc(CSc2cnc(NC(=O)Cc3ccc(OCCCCC(=O)NO)cc3)s2)o1 [Compound 10, 5-(4-(2-(5-((5-tert-butyloxazol-2-yl)methylthio)thiazol-2-ylamino)-2-oxoethyl)phenoxy)-N-hydroxypentanamide]",100 to 1000,< 100,–,–
"CC(Sc1cnc(NC(=O)Cc2ccc(OCCCC(=O)NO)cc2)s1)c1ncc(C(C)(C)C)o1 (centres unmarked) [Compound 26, 4-(4-(2-(5-(1-(5-Tert-butyloxazol-2-yl)ethylthio)-thiazol-2-ylamino)-2-oxoethyl)phenoxy)-N-hydroxybutanamide]",100 to 1000,< 100,–,–
"CC(C)(C)c1cnc(CSc2cnc(NC(=O)C3CCN(CCCCCC(=O)NO)CC3)s2)o1 [Compound 3, N-(5-((5-tert-butyloxazol-2-yl)methylthio)thiazol-2-yl)-1-(6-(hydroxyamino)-6-oxohexyl)piperidine-4-carboxamide]",1000 to 10000,< 100,127 to 130,–
CC(C)(C)c1cnc(CSc2cnc(NC(=O)c3ccc(OCCCC(=O)NO)cc3)s2)o1 [Compound 39],100 to 1000,< 100,–,–
"CC(C)(C)c1cnc(CSc2cnc(NS(=O)(=O)c3ccc(/C=C/C(=O)NO)cc3)s2)o1 [Compound 34, (E)-3-(4-(N-(5-((5-tert-butyloxazol-2-yl)methylthio)-thiazol-2-yl)sulfamoyl)phenyl)-N-hydroxyacrylamide]",< 100,–,–,No
"CC(C)(C)c1cnc(CSc2cnc(NC(=O)CCCNCCCCCC(=O)NO)s2)o1 [Compound 16, 6-(4-(5-((5-tert-butyloxazol-2-yl)methylthio)-thiazol-2-ylamino)-4-oxobutylamino)-N-hydroxyhexanamide]",100 to 1000,–,–,–
"CC(C(=O)Nc1ncc(SCc2ncc(C(C)(C)C)o2)s1)c1ccc(OCCCC(=O)NO)cc1 (centres unmarked) [Compound 31, 4-(4-(1-(5-((5-Tert-butyloxazol-2-yl)methylthio)-thiazol-2-ylamino)-1-oxopropan-2-yl)phenoxy)-N-hydroxybutanamide]",< 100,< 100,–,–
"CC(C)(C)c1cnc(CSc2cnc(NC(=O)Nc3ccc(OCCCC(=O)NO)cc3)s2)o1 [Compound 29, 4-(4-(3-(5-((5-Tert-butyloxazol-2-yl)methylthio)-thiazol-2-yl)ureido)phenoxy)-N-hydroxybutanamide]",100 to 1000,< 100,–,–
"CC(C)(C)c1cnc(CSc2cnc(NC(=O)c3ccc(OCCCCCC(=O)NO)cc3)s2)o1 [Compound 25, N-(5-((5-tert-butyloxazol-2-yl)methylthio)thiazol-2-yl)-4-(6-(hydroxyamino)-6-oxohexyloxy)benzamide]",100 to 1000,< 100,–,–
"CC(C)(C)c1cnc(CSc2cnc(NC(=O)Oc3ccc(OCCCC(=O)NO)cc3)s2)o1 [Compound 28, 4-(4-(hydroxyamino)-4-oxobutoxy)phenyl-5-((5-tert-butyloxazol-2-yl)methylthio)thiazol-2-ylcarbamate]",–,< 100,–,–
